Test results taken from US20100145469A1, “BIOCERAMIC IMPLANTS HAVING BIOACTIVE SUBSTANCE” (priority 2007, published 2010).
Entries after “also recorded” stand apart in the source; their conditions may differ.

Test system: angiogenesis
Experiment: Peritoneal implantation of Y-pore bioceramic implants in mice for 15 days, wound tissue and angiogenesis patterns
Conditions: for tissue response in pores: mice
[1] = DCPD implant treated with VEGF at the blind end of the closed pore

Source text: In order to produce model implants for the investigation of spatially localized release of both organic (VEGF), a Y shaped hemi-cylindrical pore channel was designed in the x-y plane of DCPD cuboids with dimensions 8 mm×8 mm×3 mm. The bioceramic endoprosthesis was made in two mirror image halves 50, 52 that keyed into one another to form a Y shaped pore 51a, 51b closed at one of the branched ends (see FIGS. 2A-2C). […] In the experiments, mouse VEGF solution was deposited at the end of the closed pore.
Wound tissue and angiogenesis patterns were examined for the implanted bioceramic endoprosthesis after peritoneal implantation of the bioceramic endoprosthesis in mice for 15 days.
For experimental analysis, VEGF-impregnated bioceramic materials were prepared by passive adsorption of 200 ng or 2 μg final amount of mouse VEGF (R&D, Cedarlane Laboratories Ltd., Canada) diluted in a 5 μl volume of Hank's balanced salt solution (HBSS). Adsorption of VEGF was performed on each half of the bioceramic endoprosthesis (see FIGS. 2A-2D) at the closed end (3) of the Y-shape pore. Specimens were air-dried under a sterile laminar flow hood. Prior to VEGF impregnation, the bioceramic materials were sterilized by soaking in 70% ethanol, followed by a HEPES-NaCl buffered solution rinse, HBSS (×3), and then air-dried. Control material specimens were also impregnated with HBSS without VEGF. Higher concentrations of VEGF (400 μg/ml) were also investigated.

## vascular endothelial growth factor [VEGF]
[1]
  microvessel formation (microscopic observation, FIG. 3A): microvessel formation in the tissue only in the closed pore ends
  tissue in-growth (photographs, FIG. 3A): well formed vascular tissue extended from the main pore opening to closed pore end
DCPD implant, 200 ng VEGF deposited in closed pore ends, 15 days
  tissue response in pores: vascular tissue throughout the pore channels; also recorded: Vascularised tissue was found inside the main open and closed pore channels
DCPD implant, 2 μg VEGF deposited in pore ends, 15 days
  tissue response in pores: vascular tissue throughout the pore channels
DCPD implant, 15 days
  angiogenic effect compared with untreated DCPD control (quantitative measurements): significantly enhanced angiogenic effect
HA implants containing VEGF, 15 days
  tissue response in pores: very little tissue ingrowth
HA implants, 2 μg VEGF deposited in closed pore ends, 15 days implantation
  vascularization pattern in pores: mostly filled with clear connective tissue
Factor deposited at closed pore end of model implant, peritoneal implantation 15 days, factor-free controls 2 mm
  length of pore into which blood vessels extended: 7 mm
